According to patent US20200383331A1, “COMPOSITIONS AND METHODS FOR LARGE-SCALE IN VITRO PLANT BIOCULTURE” (BOOSHOOT, LLC, priority 2017, published 2020):

Test system: Pistacia atlantica x P. intergerrina plants
Assay: In vitro initiation and multiplication of pistachio on solid medium
Assay type: cell-based
Description: Fully developed pistachio plants were cut into single-node explants, shoot tips, basal (bottom) parts of plants with multiple buds, and cultured on different agar-solidified culture media under standard tissue culture conditions (16 h light photoperiod, cool white fluorescent lights at 80-100 μmol/m^2/s light intensity, 24° C.).
Culture vessels (baby food jars) with ventilated lids are used in all experiments: 1-3 explants per 1 vessel, 12 vessels per each experimental medium, 40 ml of medium in each vessel. The explants are subcultured every 30 days, photographed every week, and observed daily.
The culture media differed in composition of major macronutrients (e.g., MS vs. WPM vs. DKW), individual elements (calcium, magnesium, phosphorus, zinc copper, boron, etc.), as well as in type and concentration of plant growth regulators (PGRs).
The compositions of these media are presented in FIG. 38, and their key advantages are based on data presented below.
Because the type and dosage of PGRs are usually the key factors controlling the morphogenetic response of plant cells in vitro, the main work was focused on testing various concentrations of cytokinins or cytokinin-like compounds (TDZ, 2iP, BA, meta-Topolin, ZR), alone or in combination with auxins (NAA, IAA, IBA), to induce organogenesis and high frequency multiplication in Pistacia atlantica x P. intergerrina. In the absence of PGRs (i.e., on hormone-free media), the plant growth was very poor and the culture gradually died within several weeks. In contrast, the culture media with 1-3 mg/l meta-Topolin, alone or in combination with 0.02-1 mg/l NAA or IBA, provided the highest rate of shoot organogenesis with the fastest response: each explant formed multiple meristematic buds, and the first axillary shoots appeared as early as 3 days after the explants were placed on the media. […] The multiplication rate of pistachio plants cultured on BOO3, BOO6, BOO4, and BOO7 media was 2-7 times every 30 days. […]

[1] = 1-3 mg/l meta-Topolin, alone or in combination with 0.02-1 mg/l NAA or IBA

**Q.** With `C=C1C[C@]23C[C@@]1(O)CC[C@H]2[C@@]12C=C[C@H](O)[C@@](C)(C(=O)O1)[C@H]2[C@@H]3C(=O)O` [GA3, gibberellic acid] as the compound, how does the “shoot development from dormant buds of plant bases” value (2 mg/l of GA3 added into the media) read?
**A.** induced shoot development

**Q.** For `Oc1cccc(CNc2ncnc3[nH]cnc23)c1` [meta-Topolin, 6-(3-hydroxybenzylamino)-purine], which “first axillary shoots appeared after the explants were placed on the media” value [1] is on record?
**A.** ≥ 3 days

**Q.** And the “rate of shoot organogenesis” value [1]?
**A.** highest
